Measurements taken from PubChem BioAssay AID1963968 (Molecular Pharmacology Branch, DTP, NCI, 2024).
“And” between values parts separate entries of the source, which are not always exact repeats. Equal entries are not always repeated.

Test system: 945468-187-T-J3-PDC spheroids with HUVEC/MSC, viability
Assay: Anticancer human tumor 945468-187-T-J3-PDC patient-derived rectal carcinoma cell line growth inhibition [PI3K]
Settings: for viability, T/C: stronger effect = lower value
Summary of the method: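 Tumor cells were combined with HUVEC and MSCs into spheroids, then dosed with PI3K-inhibitor combinations over half-log ranges capped near clinical Cmax or 10 microM.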

[1] = curve of first compound, second compound 0.0316 µM
[2] = curve of first compound, second compound 0.1 µM
[3] = curve of first compound, second compound 0.316 µM
[4] = curve of first compound, second compound 1 µM
[5] = second compound 0.0316 µM, first compound 0.0316 µM
[6] = second compound 0.0316 µM, first compound 0.1 µM
[7] = second compound 0.0316 µM, first compound 0.316 µM
[8] = second compound 0.0316 µM, first compound 1 µM
[9] = second compound 0.0316 µM, first compound 3.16 µM
[10] = second compound 0.0316 µM, first compound 10 µM
[11] = second compound 0.1 µM, first compound 0.0316 µM
[12] = second compound 0.1 µM, first compound 0.1 µM
[13] = second compound 0.1 µM, first compound 0.316 µM
[14] = second compound 0.1 µM, first compound 1 µM
[15] = second compound 0.1 µM, first compound 3.16 µM
[16] = second compound 0.1 µM, first compound 10 µM
[17] = second compound 0.316 µM, first compound 0.0316 µM
[18] = second compound 0.316 µM, first compound 0.1 µM
[19] = second compound 0.316 µM, first compound 0.316 µM
[20] = second compound 0.316 µM, first compound 1 µM
[21] = second compound 0.316 µM, first compound 3.16 µM
[22] = second compound 0.316 µM, first compound 10 µM
[23] = second compound 1 µM, first compound 0.0316 µM
[24] = second compound 1 µM, first compound 0.1 µM
[25] = second compound 1 µM, first compound 0.316 µM
[26] = second compound 1 µM, first compound 1 µM
[27] = second compound 1 µM, first compound 3.16 µM
[28] = second compound 1 µM, first compound 10 µM
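Further: spheroids exposed to agents for 7 days before viability read.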
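Wherever viability, T/C is given: 100% = DMSO vehicle control viability.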

Cn1nccc1Nc1nccc(-c2ccn(C(CO)c3ccc(Cl)c(F)c3)c(=O)c2)n1 (stereo unspecified) + Cc1nc(NC(=O)N2CCCC2C(N)=O)sc1-c1ccnc(C(C)(C)C(F)(F)F)c1 was tested, and the IC50 [1] was greater than 10 µM, the IC50 [2] was greater than 10 µM and the IC50 [3] was greater than 10 µM. For the same compound, the IC50 [4] was greater than 10 µM, the IC50 (curve of first compound, second compound 3.16 µM) was greater than 10 µM and the IC50 (curve of first compound, second compound 10 µM) was greater than 10 µM. It also gave a viability, T/C [5] of 89.1%, a viability, T/C [6] of 111% and a viability, T/C [7] of 106%. It also gave a viability, T/C [8] of 119%, a viability, T/C [9] of 135% and a viability, T/C [10] of 133%. For the same compound, the viability, T/C [11] was 107%, the viability, T/C [12] was 109% and the viability, T/C [13] was 110%. It also gave a viability, T/C [14] of 116%, a viability, T/C [15] of 125% and a viability, T/C [16] of 118%. It also gave a viability, T/C [17] of 106%, a viability, T/C [18] of 114% and a viability, T/C [19] of 104%. It also gave a viability, T/C [20] of 117%, a viability, T/C [21] of 129% and a viability, T/C [22] of 138%. The viability, T/C [23] was 113%, the viability, T/C [24] was 112% and the viability, T/C [25] was 111%. It also gave a viability, T/C [26] of 119%, a viability, T/C [27] of 144% and a viability, T/C [28] of 136%. For the same compound, the viability, T/C (second compound 3.16 µM, first compound 0.0316 µM) was 104%, the viability, T/C (second compound 3.16 µM, first compound 0.1 µM) was 101% and the viability, T/C (second compound 3.16 µM, first compound 0.316 µM) was 96.6%. It also gave a viability, T/C (second compound 3.16 µM, first compound 1 µM) of 121%, a viability, T/C (second compound 3.16 µM, first compound 3.16 µM) of 91.2% and a viability, T/C (second compound 3.16 µM, first compound 10 µM) of 90.1%. The viability, T/C (second compound 10 µM, first compound 0.0316 µM) was 59.8%, the viability, T/C (second compound 10 µM, first compound 0.1 µM) was 61.7% and the viability, T/C (second compound 10 µM, first compound 0.316 µM) was 61%. It also gave a viability, T/C (second compound 10 µM, first compound 1 µM) of 54.8%, a viability, T/C (second compound 10 µM, first compound 3.16 µM) of 52.9% and a viability, T/C (second compound 10 µM, first compound 10 µM) of 52.9%.
CC(C)NCC(C(=O)N1CCN(c2ncnc3c2C(C)CC3O)CC1)c1ccc(Cl)cc1 (stereo unspecified) + COc1c(OCCCN2CCOCC2)ccc2c3n(c(=NC(=O)c4cnc(N)nc4)nc12)CCN3 gave an IC50 (curve of first compound, second compound 0.00316 µM) of 3.68 µM, an IC50 (curve of first compound, second compound 0.01 µM) of 3.74 µM and an IC50 [1] of 1.85 µM. The IC50 [2] was less than 0.0316 µM, the IC50 [3] was less than 0.0316 µM and the IC50 [4] was less than 0.0316 µM. For the same compound, the viability, T/C (second compound 0.00316 µM, first compound 0.0316 µM) was 94.2%, the viability, T/C (second compound 0.00316 µM, first compound 0.1 µM) was 83.3% and the viability, T/C (second compound 0.00316 µM, first compound 0.316 µM) was 88.8%. For the same compound, the viability, T/C (second compound 0.00316 µM, first compound 1 µM) was 70.6%, the viability, T/C (second compound 0.00316 µM, first compound 3.16 µM) was 52.1% and the viability, T/C (second compound 0.00316 µM, first compound 10 µM) was 39.4%. The viability, T/C (second compound 0.01 µM, first compound 0.0316 µM) was 92.6%, the viability, T/C (second compound 0.01 µM, first compound 0.1 µM) was 80.9% and the viability, T/C (second compound 0.01 µM, first compound 0.316 µM) was 89.3%. For the same compound, the viability, T/C (second compound 0.01 µM, first compound 1 µM) was 81.7%, the viability, T/C (second compound 0.01 µM, first compound 3.16 µM) was 53.8% and the viability, T/C (second compound 0.01 µM, first compound 10 µM) was 28.2%. The viability, T/C [5] was 79%, the viability, T/C [6] was 84.4% and the viability, T/C [7] was 66.7%. It also gave a viability, T/C [8] of 71.8%, a viability, T/C [9] of 31.1% and a viability, T/C [10] of 25.8%. For the same compound, the viability, T/C [11] was 39%, the viability, T/C [12] was 45.5% and the viability, T/C [13] was 43.4%. It also gave a viability, T/C [14] of 27.9%, a viability, T/C [15] of 23.5% and a viability, T/C [16] of 18.6%. The viability, T/C [17] was 19.8%, the viability, T/C [18] was 19.3% and the viability, T/C [19] was 17.6%. The viability, T/C [20] was 18%, the viability, T/C [21] was 19.5% and the viability, T/C [22] was 13.3%. For the same compound, the viability, T/C [23] was 18.6%, the viability, T/C [24] was 13.7% and the viability, T/C [25] was 15.8%. For the same compound, the viability, T/C [26] was 13.6%, the viability, T/C [27] was 19.7% and the viability, T/C [28] was 11.8%.
For CC(=O)c1c(C)c2cnc(Nc3ccc(N4CCNCC4)cn3)nc2n(C2CCCC2)c1=O, the viability, T/C (compound 0.000316 µM) was 101% [middle of 4 runs], the viability, T/C (compound 0.001 µM) was 100% [middle of 4 runs] and the viability, T/C (compound 0.00316 µM) was 83.2% and 102% (2×) and 91.3%. The viability, T/C (compound 0.01 µM) was 93.4% [middle of 4 runs], the viability, T/C (compound 0.0316 µM) was 113% [middle of 4 runs] and the viability, T/C (compound 0.1 µM) was 103% (2×) and 106% and 99.3%. For the same compound, the IC50 (curve of compound) was greater than 0.1 µM.
